From publication PMC7615053 (Nature methods, 2023)
Read-outs that look alike come from different tables or passages of the source.

Assays:
GRABNE1m [1] = assay: Confocal imaging of GRABNE1m in HEK293T cells; assay type: cell-based
[2] = system: tail-lift-induced NE release; assay: Fiber photometry in lateral hypothalamus during tail-lifting; assay type: in vivo, mouse; conditions: trazodone 1 mg/kg or yohimbine 4 mg/kg, i.p., mice
[3] = system: optogenetically-evoked NE signals; assay type: in vivo, mouse; conditions: yohimbine 4 mg/kg i.p., vHPC, isoflurane anesthesia, 5 Hz LC stimulation
nLightG [4] = target: T1, nLightG (Physeter macrocephalus, UniProt A0A2Y9EW94); assay: Confocal imaging of nLightG in HEK293T cells; assay type: cell-based, sperm whale; conditions: for fluorescence response of nLightG to neurotransmitter: 10 μM, HEK293T cells
T1 sequence (A0A2Y9EW94 with tags, fused parts or gaps): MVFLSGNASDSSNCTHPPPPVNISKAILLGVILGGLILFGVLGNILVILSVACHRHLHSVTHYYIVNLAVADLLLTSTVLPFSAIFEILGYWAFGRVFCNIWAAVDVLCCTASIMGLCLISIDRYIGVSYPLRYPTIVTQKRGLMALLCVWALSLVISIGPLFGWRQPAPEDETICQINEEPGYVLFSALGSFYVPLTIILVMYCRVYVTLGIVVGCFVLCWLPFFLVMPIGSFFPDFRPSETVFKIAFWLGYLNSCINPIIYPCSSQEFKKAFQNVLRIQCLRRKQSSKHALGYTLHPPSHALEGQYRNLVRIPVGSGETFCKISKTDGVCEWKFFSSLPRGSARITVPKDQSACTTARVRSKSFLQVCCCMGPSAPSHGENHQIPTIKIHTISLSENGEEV

nLightR [5] = target: T2, nLightR (Physeter macrocephalus, UniProt A0A2Y9EW94); assay: Confocal imaging of nLightR in HEK293T cells; assay type: cell-based, sperm whale; conditions: for fluorescence response of nLightR to neurotransmitter: 10 μM, HEK293T cells
T2 sequence (A0A2Y9EW94 with tags, fused parts or gaps): T1 sequence (A0A2Y9EW94 with tags, fused parts or gaps)

nLightG [6] = target: T1, nLightG; assay: Ligand perfusion on acute brain slices; set-up: species or system sperm whale
nLightR [7] = target: T2, nLightR; assay: Ligand perfusion on acute brain slices; set-up: species or system sperm whale
GRABNE1m [8] = system: GRABNE1m
[9] = target: T3, sperm whale-based indicator (Alpha-1 AR, red prototype) (Physeter macrocephalus, UniProt A0A2Y9EW94); assay: Dose-response of the sperm whale-based red indicator prototype in HEK293T cells; assay type: cell-based
T3 sequence (A0A2Y9EW94 with tags, fused parts or gaps): T1 sequence (A0A2Y9EW94 with tags, fused parts or gaps)

nLightG [10] = target: T1, nLightG; assay: Plate reader dose-response of nLightG in HEK293T cells; assay type: cell-based, sperm whale
nLightR [11] = target: T2, nLightR; assay: Plate reader dose-response of nLightR in HEK293T cells; assay type: cell-based, sperm whale
GRABNE1m [12] = conditions: HEK293T cells
human DRD1 = conditions: DA 10 μM, DRD1 (positive control)
[13] = system: optogenetically-evoked NE release; assay: Dual-site fiber photometry in LC and dHPC during optogenetic LC stimulation; assay type: in vivo, mouse; conditions: desipramine 10 μg/g i.p., awake mice
[14] = system: green fluorescent NE indicator prototype (sperm whale Alpha-1 AR); assay: Fluorescence response of the green NE indicator prototype; assay type: cell-based; conditions: green prototype with fluorescent protein module from dLight1.3b
swAlpha-1 AR [15] = assay type: cell-based, sperm whale; conditions: NE 10 μM, wild-type swAlpha-1 AR, HEK293T
nLightG [16] = target: T1, nLightG; assay: Intracellular calcium signaling; assay type: cell-based, sperm whale; conditions: NE 10 μM, HEK293T
nLightR [17] = target: T2, nLightR; assay: Intracellular calcium signaling; assay type: cell-based, sperm whale; conditions: NE 10 μM, HEK293T
swAlpha-1 AR [18] = assay: NanoBiT complementation assay in HEK293T cells; assay type: cell-based, sperm whale; conditions: NE 10 μM
nLightG [19] = target: T1, nLightG; assay: NanoBiT complementation assay in HEK293T cells; assay type: cell-based, sperm whale; conditions: NE 10 μM
nLightR [20] = target: T2, nLightR; assay: NanoBiT complementation assay in HEK293T cells; assay type: cell-based, sperm whale; conditions: NE 10 μM
[21] = after NE 10 μM, Trz 10 μM, HEK293T cells and neurons
[22] = trazodone 10 μM after NE 50 μM, brain slices

`COC(=O)[C@@H]1[C@H]2C[C@H]3c4[nH]c5ccccc5c4CCN3C[C@@H]2CC[C@@H]1O` [yohimbine] was tested, and the “effect of antagonist on NE-induced activation of GRABNE1m” value (GRABNE1m [1]) was “fully inactivated”, the “effect on tail-lift-induced GRABNE1m signals” value [2] was “strongly attenuated” and the “effect on tail-lift-induced response of nLightG” value [2] was “increased”. For the same compound, the “effect on tail-lift-induced response of nLightR” value [2] was “increased”, the “effect on optogenetically-evoked NE signals monitored via GRABNE1m” value [3] was “significantly attenuated” and the “effect on optogenetically-evoked NE signals reported by nLightG” value [3] was “did not have a significant effect”.

For `O=c1n(CCCN2CCN(c3cccc(Cl)c3)CC2)nc2ccccn12` [trazodone], the “effect of antagonist on NE-induced activation of nLightG” value (nLightG [4]; [21]) was “fully reversed”, the “effect of antagonist on NE-induced activation of nLightR” value (nLightR [5]; [21]) was “fully reversed” and the “effect of antagonist on NE-induced activation of GRABNE1m” value (GRABNE1m [1]; after NE 10 μM, Trz 100 nM, Yoh 100 nM, HEK293T) was “not affected”. For the same compound, the “effect on NE-induced response” value (nLightG [6]; [22]) was “largely reversed”, the “effect on NE-induced response” value (nLightR [7]; [22]) was “largely reversed” and the “effect on tail-lift-induced GRABNE1m signals” value [2] was “no effect”. The “effect on tail-lift-induced response of nLightG” value [2] was “significantly reduced”, the “effect on tail-lift-induced response of nLightR” value [2] was “significantly reduced” and the “effect on NE-induced response” value (GRABNE1m [8]; [22]) was “no significant effect”.

In the case of `NCCc1ccc(O)c(O)c1` [DA, dopamine], the EC50 [9] is reported as 21.5 µM, the “fluorescence response of nLightG to neurotransmitter” value (from here on “fluorescence response of nLightG”) (nLightG [4]) is reported as “significant fluorescence response” and the “fluorescence response of nLightR to neurotransmitter” value (“fluorescence response of nLightR” for short) (nLightR [5]) is reported as “significant fluorescence response”. For the same compound, the “agonist character at nLightG” value (nLightG [10]) was “partial agonist”, the “EC50 of DA relative to that of NE” value (nLightG [10]; nLightG) was “approximately 30 fold” and the “agonist character at nLightR” value (nLightR [11]) was “partial agonist”. The “EC50 of DA relative to that of NE” value (nLightR [11]; nLightR) was “approximately 30 fold”, the “response to DA relative to response to identical concentration of NE” value (nLightG [6]; 50 μM, mouse LH brain slices) was “about 12%” and the “response to DA relative to response to identical concentration of NE” value (nLightR [7]; 50 μM, mouse LH brain slices) was about 3%. The “EC50 for DA relative to that for NE” value (GRABNE1m [12]) was 8 fold, the “maximal response to DA as fraction of the response to NE” value (GRABNE1m [12]) was 35% and the “recruitment of β-arrestin-2” value (human DRD1) was “significant recruitment”. The “response to DA relative to response to NE” value (GRABNE1m [8]; 50 μM, mouse LH brain slices) was “about 19%”.

In the case of `CNCCCN1c2ccccc2CCc2ccccc21` [desipramine], the “effect on magnitude and decay kinetics of the nLightG response in LC” value [13] is reported as “significant increase”.

With `CNC[C@H](O)c1ccc(O)c(O)c1` [epinephrine] the “fluorescence response of nLightG” value (nLightG [4]) was “significant fluorescence response” and the “fluorescence response of nLightR” value (nLightR [5]) was “significant fluorescence response”.

With `NC[C@H](O)c1ccc(O)c(O)c1` [NE, norepinephrine] the EC50 [9] was 0.574 µM, the ΔF/F0 response [14] was “approximately 1000%” and the “fluorescence response of nLightG” value (nLightG [4]) was “significant fluorescence response”. For the same compound, the “fluorescence response of nLightR” value (nLightR [5]) was “significant fluorescence response”, the “intracellular Ca2+ concentration” value (swAlpha-1 AR [15]) was “significant increase” and the “intracellular Ca2+ concentration” value (nLightG [16]) was “did not induce a significant increase”. For the same compound, the “intracellular Ca2+ concentration” value (nLightR [17]) was “did not induce a significant increase”, the “coupling to mini-Gi” value (swAlpha-1 AR [18]) was “no significant coupling” and the “coupling to mini-Gq and mini-Gs” value (swAlpha-1 AR [18]) was “significant coupling”. The “coupling to mini-Gq, mini-Gs or mini-Gi” value (nLightG [19]) was “did not lead to a significant coupling”, the “recruitment of β-arrestin-2” value (nLightG [19]) was “no recruitment” and the “coupling to mini-Gq, mini-Gs or mini-Gi” value (nLightR [20]) was “did not lead to a significant coupling”. The “recruitment of β-arrestin-2” value (nLightR [20]) was “no recruitment”.
